Tests used:
COLO 205 (Colon cancer) = test: NCI-60 screen (SRB, 48 h); details: Homo sapiens
HCT-15 (Colon cancer) = test: NCI-60 screen (SRB, 48 h); details: Homo sapiens, HCT-15
KM12 (Colon cancer) = test: NCI-60 screen (SRB, 48 h); details: Homo sapiens
OVCAR-3 (Ovarian cancer) = test: cells; details: Homo sapiens, OVCAR-3
Prostate cancer subpanel = test: NCI-60 screen, subpanel; details: Homo sapiens
MALME-3M (Melanoma) = test: NCI-60 screen (SRB, 48 h); details: Homo sapiens
T-47D (Breast cancer) = test: NCI-60 screen (SRB, 48 h); details: Homo sapiens, T47D
TK-10 (Renal cancer) = test: NCI-60 screen (SRB, 48 h); details: Homo sapiens
HCC-2998 (Colon cancer) = test: NCI-60 screen (SRB, 48 h); details: Homo sapiens, HCC 2998
SK-MEL-5 (Melanoma) = test: NCI-60 screen (SRB, 48 h); details: Homo sapiens
MOLT-4 (Leukemia) = test: NCI-60 screen (SRB, 48 h); details: Homo sapiens
HS 578T (Breast cancer) = test: NCI-60 screen (SRB, 48 h); details: Homo sapiens
SNB-19 (CNS cancer) = test: NCI-60 screen (SRB, 48 h); details: Homo sapiens
RPMI-8226 (Leukemia) = test: NCI-60 screen (SRB, 48 h); details: Homo sapiens
UO-31 (Renal cancer) = test: NCI-60 screen (SRB, 48 h); details: Homo sapiens
CCRF-CEM (Leukemia) = test: NCI-60 screen (SRB, 48 h); details: Homo sapiens
DU-145 (Prostate cancer) = test: NCI-60 screen (SRB, 48 h); details: Homo sapiens
Melanoma subpanel = test: NCI-60 screen, subpanel; details: Homo sapiens
HT29 (Colon cancer) = test: NCI-60 screen (SRB, 48 h); details: Homo sapiens
MCF7 (Breast cancer) = test: NCI-60 screen (SRB, 48 h); details: Homo sapiens, MCF7
MDA-MB-435 (Melanoma) = test: NCI-60 screen (SRB, 48 h); assay type: cell-based; details: Homo sapiens
HOP-92 (NSC lung cancer) = test: NCI-60 screen (SRB, 48 h); details: Homo sapiens
K-562 (Leukemia) = test: NCI-60 screen (SRB, 48 h); details: Homo sapiens
IGROV1 (Ovarian cancer) = test: NCI-60 screen (SRB, 48 h)
[1] = system: NCI-H226 (NSC lung cancer); test: NCI-60 screen (SRB, 48 h); details: Homo sapiens
UACC-257 (Melanoma) = test: NCI-60 screen (SRB, 48 h); details: Homo sapiens
SW-620 (Colon cancer) = test: NCI-60 screen (SRB, 48 h); details: Homo sapiens, SW-620
Leukemia subpanel = test: cells; details: Homo sapiens

With `C=C(C)[C@@H]1CC[C@]2(COS(=O)(=O)c3ccc(C)cc3)CC[C@]3(C)[C@@H](CC[C@@H]4[C@@]5(C)CCCNC(C)(C)[C@@H]5CC[C@]43C)[C@@H]12` [Compound 12] the GI50 (COLO 205 (Colon cancer); COLO 205) was 1.75 µM, the IC (TGI) (COLO 205 (Colon cancer); COLO 205, 48 h, read-out: TGI) was 3.24 µM and the GI50 (HCT-15 (Colon cancer)) was 1.38 µM. For the same compound, the GI50 (KM12 (Colon cancer); KM12) was 1.84 µM, the IC (TGI) (KM12 (Colon cancer); KM12, 48 h, read-out: TGI) was 3.41 µM and the GI50 (OVCAR-3 (Ovarian cancer)) was 1.67 µM. It also gave an IC (TGI) (Prostate cancer subpanel; 48 h, read-out: TGI MG_MID) of 3.15 µM, a GI50 (Prostate cancer subpanel; read-out: GI50 MG_MID) of 1.67 µM and a GI50 (MALME-3M (Melanoma)) of 1.84 µM. It also gave an IC (TGI) (MALME-3M (Melanoma); 48 h, read-out: TGI) of 3.79 µM, a GI50 (T-47D (Breast cancer)) of 1.57 µM and an IC (TGI) (T-47D (Breast cancer); 48 h, read-out: TGI) of 3.15 µM. The GI50 (TK-10 (Renal cancer); TK-10) was 1.66 µM, the IC (TGI) (TK-10 (Renal cancer); TK-10, 48 h, read-out: TGI) was 3.23 µM and the GI50 (HCC-2998 (Colon cancer)) was 1.58 µM. For the same compound, the GI50 (SK-MEL-5 (Melanoma); SK-MEL-5) was 1.67 µM, the IC (TGI) (SK-MEL-5 (Melanoma); SK-MEL-5, 48 h, read-out: TGI) was 3.08 µM and the GI50 (MOLT-4 (Leukemia); MOLT-4) was 1.62 µM. For the same compound, the IC (TGI) (MOLT-4 (Leukemia); MOLT-4, 48 h, read-out: TGI) was 3.59 µM, the GI50 (HS 578T (Breast cancer)) was 1.79 µM and the IC (TGI) (HS 578T (Breast cancer); 48 h, read-out: TGI) was 3.94 µM. It also gave a GI50 (SNB-19 (CNS cancer); SNB-19) of 2.04 µM, an IC (TGI) (SNB-19 (CNS cancer); SNB-19, 48 h, read-out: TGI) of 3.68 µM and a GI50 (RPMI-8226 (Leukemia); RPMI-8226) of 1.86 µM. For the same compound, the IC (TGI) (RPMI-8226 (Leukemia); RPMI-8226, 48 h, read-out: TGI) was 4.54 µM, the CC50 (RPMI-8226 (Leukemia); RPMI-8226, read-out: LC50) was over 100 µM and the GI50 (UO-31 (Renal cancer); UO-31) was 1.64 µM. It also gave an IC (TGI) (UO-31 (Renal cancer); UO-31, 48 h, read-out: TGI) of 3.04 µM, a GI50 (CCRF-CEM (Leukemia)) of 2.28 µM and a CC50 (CCRF-CEM (Leukemia); read-out: LC50) of over 100 µM. The GI50 (DU-145 (Prostate cancer); DU-145) was 1.77 µM, the IC (TGI) (DU-145 (Prostate cancer); DU-145, 48 h, read-out: TGI) was 3.3 µM and the IC (TGI) (Melanoma subpanel; 48 h, read-out: TGI MG_MID) was 3.42 µM. The GI50 (Melanoma subpanel; read-out: GI50 MG_MID) was 1.87 µM, the GI50 (HT29 (Colon cancer); HT-29) was 1.93 µM and the IC (TGI) (HT29 (Colon cancer); HT-29, 48 h, read-out: TGI) was 3.5 µM. For the same compound, the GI50 (MCF7 (Breast cancer)) was 1.45 µM, the IC (TGI) (MDA-MB-435 (Melanoma); MDA-MB-435, 48 h, read-out: TGI) was 3.19 µM and the GI50 (MDA-MB-435 (Melanoma); MDA-MB-435, read-out: GI50) was 1.73 µM. For the same compound, the GI50 (HOP-92 (NSC lung cancer); HOP-92) was 1.54 µM, the IC (TGI) (HOP-92 (NSC lung cancer); HOP-92, 48 h, read-out: TGI) was 3.01 µM and the GI50 (K-562 (Leukemia); K562) was 1.57 µM. For the same compound, the CC50 (K-562 (Leukemia); K562, read-out: LC50) was over 100 µM, the GI50 (IGROV1 (Ovarian cancer); Homo sapiens, IGROV-1) was 1.84 µM and the “Growth % of the Most Sensitive Cell Lines” value (IGROV1 (Ovarian cancer); IGROV1, 1 dose 10 µM) was −87.10%. The GI50 ([1]; NCI-H226) was 1.81 µM, the IC (TGI) ([1]; NCI-H226, 48 h, read-out: TGI) was 3.63 µM and the GI50 (UACC-257 (Melanoma); UACC-257) was 1.97 µM. It also gave an IC (TGI) (UACC-257 (Melanoma); UACC-257, 48 h, read-out: TGI) of 3.65 µM, a GI50 (SW-620 (Colon cancer)) of 1.83 µM and an IC (TGI) (Leukemia subpanel; 48 h, read-out: TGI MG_MID) of 4.06 µM. For the same compound, the GI50 (Leukemia subpanel; read-out: GI50 MG_MID) was 1.83 µM and the CC50 (Leukemia subpanel; read-out: LC50 MG_MID) was over 100 µM.
